What is called IC50 is the point on the concentration scale where inhibition reaches its midpoint. Low readings indicate inhibition by little substance, high ones a need for much substance.

The source of these data is US20130216498A1, “IMIDAZOPYRIDINE DERIVATIVES AS JAK INHIBITORS” (priority 2009, published 2013).

Holding throughout (format): biochemical
The target in assay [1] is T1, human JAK1 (aa 850-1154) catalytic domain (Homo sapiens, UniProt P23458).
T1 construct: human JAK1 (aa 850-1154); GST (N); purchased Carna Biosciences; host or cells: baculovirus expression system
T1 sequence (P23458 850-1154): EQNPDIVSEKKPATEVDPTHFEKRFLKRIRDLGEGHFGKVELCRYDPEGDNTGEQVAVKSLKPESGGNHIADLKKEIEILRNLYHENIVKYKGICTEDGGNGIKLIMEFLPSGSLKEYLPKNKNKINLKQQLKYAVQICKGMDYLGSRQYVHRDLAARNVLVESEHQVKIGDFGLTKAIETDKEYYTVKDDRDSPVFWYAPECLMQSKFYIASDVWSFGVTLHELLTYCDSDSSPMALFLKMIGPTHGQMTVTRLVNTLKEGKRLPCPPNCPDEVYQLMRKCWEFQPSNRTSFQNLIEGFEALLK
Kind of assay: In vitro JAK kinase assay (TR-FRET), JAK1. As to conditions: GST-fusion catalytic domain; ATP 3 μM; poly (GT)-Biotin 60 nM; 30 minutes at room temperature. The procedure:
(§1) Compounds were screened for their ability to inhibit JAK1, JAK2 and JAK3 using the assays as indicated below.
(§2) The catalytic domains of human JAK1 (aa 850-1154), JAK2 (aa 826-1132), JAK3 (aa 795-1124) and Tyk2 (aa 871-1187) were expressed as N-terminal GST-fusion proteins using a baculovirus expression system and were purchased from Carna Biosciences. The enzymatic activity was assayed using as substrate a biotinylated peptide, poly (GT)-Biotin (CisBio). The peptide concentration in the reactions was 60 nM for JAK1, 20 nM for JAK2, 140 nM for JAK3 and 50 nM for Tyk2. The degree of phosphorylation was detected by TR-FRET (time-resolved fluorescence energy transfer).
(§3) IC50s of compounds were measured for each kinase in a reaction mixture containing the enzyme, ATP and the peptide in 8 mM MOPS (pH 7.0), 10 mM MgCl2, 0.05% β-mercaptoethanol, 0.45 mg/mL BSA. The ATP concentration in the reactions was 3 μM for JAK1, 0.2 μM for JAK2, 0.6 μM for JAK3 and 1.8 μM for Tyk2. The enzymatic reactions took place for 30 minutes at room temperature. Then, the reactions were stopped with 20 μL of quench detection buffer (50 mM HEPES, 0.5 M KF, EDTA 0.25 M, 0.1% (w/v) BSA, pH 7.5) containing 0.115 μg/mL of anti-phosphoTyr (PT66)-Cryptate (CisBio) and a variable concentration of SA-XL665 (CisBio) to keep the SA-B ratio constant. Incubate for 3 h and read on Victor 2V spectrofluorometer (PerkinElmer) set to read fluorescence resonance energy transfer.
(In general: TR-FRET usually uses a lanthanide donor and a delayed reading to cut background.)

Assay [2] concerns the target T2, human JAK3 (aa 795-1124) catalytic domain (Homo sapiens, UniProt P52333).
T2 construct: JAK3 (aa 795-1124); GST (N); purchased Carna Biosciences; host or cells: baculovirus expression system
The assay is described as follows: In vitro JAK kinase assay (TR-FRET), JAK3. To be noted: GST-fusion catalytic domain; ATP 0.6 μM; poly (GT)-Biotin 140 nM; 30 minutes at room temperature. The procedure: as §1, §2, §3

In assay [3] the target is T3, human JAK2 (aa 826-1132) catalytic domain (Homo sapiens, UniProt O60674).
T3 construct: JAK2 (aa 826-1132); GST (N); purchased Carna Biosciences; host or cells: baculovirus expression system
T3 sequence (O60674 826-1132): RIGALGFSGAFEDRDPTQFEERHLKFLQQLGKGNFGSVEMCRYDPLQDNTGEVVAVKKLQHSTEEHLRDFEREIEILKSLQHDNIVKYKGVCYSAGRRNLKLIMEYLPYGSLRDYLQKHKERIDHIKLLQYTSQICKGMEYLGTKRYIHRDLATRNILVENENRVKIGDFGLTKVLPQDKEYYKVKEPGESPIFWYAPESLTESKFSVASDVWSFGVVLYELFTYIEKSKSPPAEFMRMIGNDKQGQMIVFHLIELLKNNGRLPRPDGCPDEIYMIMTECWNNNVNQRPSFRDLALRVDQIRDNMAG
The assay is described as follows: In vitro JAK kinase assay (TR-FRET), JAK2. To be noted: GST-fusion catalytic domain; ATP 0.2 μM; poly (GT)-Biotin 20 nM; 30 minutes at room temperature. The procedure: as §1, §2, §3

T2 sequence (P52333 795-1124): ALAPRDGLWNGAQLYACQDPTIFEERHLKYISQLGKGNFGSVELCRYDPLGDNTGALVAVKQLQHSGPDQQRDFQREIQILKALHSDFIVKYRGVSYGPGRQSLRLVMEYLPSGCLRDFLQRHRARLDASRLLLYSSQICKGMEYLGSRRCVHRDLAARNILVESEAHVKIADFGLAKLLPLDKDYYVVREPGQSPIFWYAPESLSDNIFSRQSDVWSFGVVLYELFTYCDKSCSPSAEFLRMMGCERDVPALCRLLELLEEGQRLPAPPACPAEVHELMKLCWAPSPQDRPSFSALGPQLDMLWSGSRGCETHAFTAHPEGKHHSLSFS

As for `N#CCC(=O)N1CCC[C@@H](Nc2cc(N3CCC[C@H]3C(=O)O)nc(-c3cnc4ccc(F)cn34)n2)C1` [Example 172], the half-maximal inhibitory concentration (IC50) in assay [1] is 100 to 1000 nM; in assay [2] it was 100 to 1000 nM; in assay [3] it was below 100 nM.

As to `Cc1cnc(-c2cnc3ccc(F)cn23)nc1N[C@@H]1CCCN(C(=O)CC(F)(F)F)C1` [Example 80, 2-(6-Fluoroimidazo[1,2-a]pyridin-3-yl)-5-methyl-N-[(3R)-1-(3,3,3-trifluoropropanoyl)piperidin-3-yl]pyrimidin-4-amine], the IC50 in assay [1], in assay [2] and in assay [3] was below 100 nM in each case.

Turning to `COc1cnc(-c2cnc3ccc(F)cn23)nc1N[C@@H]1CCCN(C(=O)CC#N)C1` [Example 163, (R)-3-(3-(2-(6-Fluoroimidazo[1,2-a]pyridin-3-yl)-5-methoxypyrimidin-4-ylamino)piperidin-1-yl)-3-oxopropanenitrile], the IC50 in assay [1] is 100 to 1000 nM; in assay [2] it was below 100 nM; in assay [3] it was below 100 nM.

For the molecule `N#CCC(=O)N1CCC[C@@H](Nc2cc(OCCN3CCOCC3)nc(-c3cnc4ccc(F)cn34)n2)C1` [Example 175, (R)-3-(3-(2-(6-Fluoroimidazo[1,2-a]pyridin-3-yl)-6-(2-morpholinoethoxy)pyrimidin-4-ylamino)piperidin-1-yl)-3-oxopropanenitrile], the IC50 in assay [1], in assay [2] and in assay [3] was below 100 nM throughout.

On to `CC(C)(C)CNc1nc(-c2cnc3ccc(C#N)cn23)nc2ccccc12` [Example 25], for which the IC50 in assay [1], in assay [2] and in assay [3] was 100 to 1000 nM each time.
